Marks after values point to notes of the source that are not given here.
Test system: myeloperoxidase (MPO)
Test: Myeloperoxidase (MPO) expression/activity inhibition in LPS-stimulated skin PMNs (ELISA on cell supernatants)
Format: cell-based
Conditions: human skin PMNs stimulated with LPS, positive reference at 0.1%, 6 hours of incubation
Description: Tamarind Seed Polysaccharide (either alone and in combination with standardized botanical extracts) was tested for its ability to reduce inflammation cellular response through the measurement of the inhibition of myeloperoxidase (MPO) activity in polymorphonuclear neutrophils (PMNs). Inflammation, in particular during the acute phase, causes the migration of PMNs towards the inflammation site by chemotaxis. It is also known that the degree of MPO activity is directly proportional to the number of PMNs present in the tissue and to the inflammatory response. Thus, a reduction of the number of PMNs corresponds to a reduction in the activity of myeloperoxidase and it can he then concluded that the cellular response to inflammation is reduced accordingly.
Human skin PMNs were cultivated in bacteriological Petri dishes with 100 mm diameter. Cell culture medium was RPMI-1640 supplemented with Penicillin (100 U/ml), Streptomycin (100 mcg/ml), L-glutamin (2 mM) and 10% heat-inactivated and filtered FCS (Foetal Calf Serum). PMNs were then stimulated with the addition of LPS (lipopolysaccharides) to the cultivation media. […]
After 6 hours of incubation, the overall inhibition of myeloperoxidase (MPO) activity was quantified in the PMNs cell supernatants using an enzyme immunoassay kit (ELISA).

C[C@@H]1C[C@H]2[C@@H]3CCC4=CC(=O)C=C[C@]4(C)[C@@]3(F)[C@@H](O)C[C@]2(C)[C@@]1(O)C(=O)CO [Dexamethasone]
MPO Inhibition of Expression (Δ % vs. basal): −30%*
